Results from patent US8580794B2 (AbbVie Inc., priority 2009, dated 2013).

Molecular target: GST-Bc1-2 (Homo sapiens, UniProt P10415)
Assay: Time Resolved-Fluorescence Resonance Energy Transfer (TR-FRET) Bcl-2 binding assay with F-Bak peptide probe
Settings: GST-Bcl-2 1 nM, F-Bak probe 100 nM, Tb-anti-GST 1 nM; '<' = below limit of detection; read-out: TR-FRET Bcl-2 Binding Ki

Chain of GST-Bc1-2 (P10415 whole entry): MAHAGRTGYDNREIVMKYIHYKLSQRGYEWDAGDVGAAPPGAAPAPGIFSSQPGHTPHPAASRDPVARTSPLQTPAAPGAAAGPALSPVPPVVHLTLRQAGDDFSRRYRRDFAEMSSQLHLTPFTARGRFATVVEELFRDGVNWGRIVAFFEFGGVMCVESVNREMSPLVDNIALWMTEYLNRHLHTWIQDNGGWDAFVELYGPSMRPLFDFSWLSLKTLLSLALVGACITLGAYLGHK

| SMILES | Ki [nM] |
| --- | --- |
| CC1(C)CCC(CN2CCN(c3ccc(C(=O)NS(=O)(=O)c4ccc(NCC5CN(CC#N)CCO5)c([N+](=O)[O-])c4)c(Oc4cnc5[nH]ccc5c4)c3)CC2)=C(c2ccc(Cl)cc2)C1 (stereo not shown) [Example 214, 4-(4-{[2-(4-chlorophenyl)-4,4-dimethylcyclohex-1-en-1-yl]methyl}piperazin-1-yl)-N-{[4-({[4-(cyanomethyl)morpholin-2-yl]methyl}amino)-3-nitrophenyl]sulfonyl}-2-(1H-pyrrolo[2,3-b]pyridin-5-yloxy)benzamide] | < 0.01 |
| CN(C)CC(=O)N1CCOC(CNc2ccc(S(=O)(=O)NC(=O)c3ccc(N4CCN(CC5=C(c6ccc(Cl)cc6)CC(C)(C)CC5)CC4)cc3Oc3cnc4[nH]ccc4c3)cc2[N+](=O)[O-])C1 (stereo not shown) [Example 215, 4-(4-{[2-(4-chlorophenyl)-4,4-dimethylcyclohex-1-en-1-yl]methyl}piperazin-1-yl)-N-{[4-({[4-(N,N-dimethylglycyl)morpholin-2-yl]methyl}amino)-3-nitrophenyl]sulfonyl}-2-(1H-pyrrolo[2,3-b]pyridin-5-yloxy)benzamide] | < 0.01 |
| CC1(C)CCC(CN2CCN(c3ccc(C(=O)NS(=O)(=O)c4ccc(NCC5CN(CC(=O)O)CCO5)c([N+](=O)[O-])c4)c(Oc4cnc5[nH]ccc5c4)c3)CC2)=C(c2ccc(Cl)cc2)C1 (stereo not shown) [Example 216, (2-{[(4-{[4-(4-{[2-(4-chlorophenyl)-4,4-dimethylcyclohex-1-en-1-yl]methyl}piperazin-1-yl)-2-(1H-pyrrolo[2,3-b]pyridin-5-yloxy)benzoyl]sulfamoyl}-2-nitrophenyl)amino]methyl}morpholin-4-yl)acetic acid] | < 0.01 |
| CC1(C)CCC(CN2CCN(c3ccc(C(=O)NS(=O)(=O)c4ccc(NCC5CN(C6COC6)CCO5)c([N+](=O)[O-])c4)c(Oc4cnc5[nH]ccc5c4)c3)CC2)=C(c2ccc(Cl)cc2)C1 (stereo not shown) [Example 217, 4-(4-{[2-(4-chlorophenyl)-4,4-dimethylcyclohex-1-en-1-yl]methyl}piperazin-1-yl)-N-{[3-nitro-4-({[4-(oxetan-3-yl)morpholin-2-yl]methyl}amino)phenyl]sulfonyl}-2-(1H-pyrrolo[2,3-b]pyridin-5-yloxy)benzamide] | < 0.01 |
| CC1(C)CCC(CN2CCN(c3ccc(C(=O)NS(=O)(=O)c4ccc(NCC5CN(C6CC6)CCO5)c([N+](=O)[O-])c4)c(Oc4cnc5[nH]ccc5c4)c3)CC2)=C(c2ccc(Cl)cc2)C1 (stereo not shown) [Example 218, 4-(4-{[2-(4-chlorophenyl)-4,4-dimethylcyclohex-1-en-1-yl]methyl}piperazin-1-yl)-N-[(4-{[(4-cyclopropylmorpholin-2-yl)methyl]amino}-3-nitrophenyl)sulfonyl]-2-(1H-pyrrolo[2,3-b]pyridin-5-yloxy)benzamide] | 0.013 |
| CC1(C)CCC(CN2CCN(c3ccc(C(=O)NS(=O)(=O)c4cnc(OCC5CCOCC5)c(S(C)(=O)=O)c4)c(Oc4cnc5[nH]ccc5c4)c3)CC2)=C(c2ccc(Cl)cc2)C1 [Example 219, 4-(4-{[2-(4-chlorophenyl)-4,4-dimethylcyclohex-1-en-1-yl]methyl}piperazin-1-yl)-N-{[5-(methylsulfonyl)-6-(tetrahydro-2H-pyran-4-ylmethoxy)pyridin-3-yl]sulfonyl}-2-(1H-pyrrolo[2,3-b]pyridin-5-yloxy)benzamide] | 1.19 |
| CC1(C)CCC(CN2CCN(c3ccc(C(=O)NS(=O)(=O)c4ccc(OCC5(F)CCOCC5)c(S(=O)(=O)C(F)(F)F)c4)c(Oc4cnc5[nH]ccc5c4)c3)CC2)=C(c2ccc(Cl)cc2)C1 [Example 220, 4-(4-{[2-(4-chlorophenyl)-4,4-dimethylcyclohex-1-en-1-yl]methyl}piperazin-1-yl)-N-({4-[(4-fluorotetrahydro-2H-pyran-4-yl)methoxy]-3-[(trifluoromethyl)sulfonyl]phenyl}sulfonyl)-2-(1H-pyrrolo[2,3-b]pyridin-5-yloxy)benzamide] | 0.988 |
| CC1(C)CCC(CN2CCN(c3ccc(C(=O)NS(=O)(=O)c4ccc(OCC5(C)CCOCC5)c([N+](=O)[O-])c4)c(Oc4cnc5[nH]ccc5c4)c3)CC2)=C(c2ccc(Cl)cc2)C1 [Example 221, 4-(4-{[2-(4-chlorophenyl)-4,4-dimethylcyclohex-1-en-1-yl]methyl}piperazin-1-yl)-N-({4-[(4-methyltetrahydro-2H-pyran-4-yl)methoxy]-3-nitrophenyl}sulfonyl)-2-(1H-pyrrolo[2,3-b]pyridin-5-yloxy)benzamide] | 0.049 |
| CCOC(=O)N1CCN(c2ccc(S(=O)(=O)NC(=O)c3ccc(N4CCN(CC5=C(c6ccc(Cl)cc6)CC(C)(C)CC5)CC4)cc3Oc3cnc4[nH]ccc4c3)cc2[N+](=O)[O-])CC1 [Example 222, ethyl 4-(4-{[4-(4-{[2-(4-chlorophenyl)-4,4-dimethylcyclohex-1-en-1-yl]methyl}piperazin-1-yl)-2-(1H-pyrrolo[2,3-b]pyridin-5-yloxy)benzoyl]sulfamoyl}-2-nitrophenyl)piperazine-1-carboxylate] | 0.938 |
| CC1(C)CCC(CN2CCN(c3ccc(C(=O)NS(=O)(=O)c4ccc(N5CCC(N6CCOCC6)CC5)c([N+](=O)[O-])c4)c(Oc4cnc5[nH]ccc5c4)c3)CC2)=C(c2ccc(Cl)cc2)C1 [Example 223, 4-(4-{[2-(4-chlorophenyl)-4,4-dimethylcyclohex-1-en-1-yl]methyl}piperazin-1-yl)-N-({4-[4-(morpholin-4-yl)piperidin-1-yl]-3-nitrophenyl}sulfonyl)-2-(1H-pyrrolo[2,3-b]pyridin-5-yloxy)benzamide] | 0.053 |
| CC1(C)CCC(CN2CCN(c3ccc(C(=O)NS(=O)(=O)c4ccc(N[C@@H]5CCN(C(CF)CF)C5)c(S(=O)(=O)C(F)(F)F)c4)c(Oc4cnc5[nH]ccc5c4)c3)CC2)=C(c2ccc(Cl)cc2)C1 [Example 225, 4-(4-{[2-(4-chlorophenyl)-4,4-dimethylcyclohex-1-en-1-yl]methyl}piperazin-1-yl)-N-[(4-{[(3R)-1-(1,3-difluoropropan-2-yl)pyrrolidin-3-yl]amino}-3-[(trifluoromethyl)sulfonyl]phenyl)sulfonyl]-2-(1H-pyrrolo[2,3-b]pyridin-5-yloxy)benzamide] | 0.196 |
| CC(C)N1CCC(Nc2ccc(S(=O)(=O)NC(=O)c3ccc(N4CCN(CC5=C(c6ccc(Cl)cc6)CC(C)(C)CC5)CC4)cc3Oc3cnc4[nH]ccc4c3)cc2[N+](=O)[O-])CC1 [Example 226, 4-(4-{[2-(4-chlorophenyl)-4,4-dimethylcyclohex-1-en-1-yl]methyl}piperazin-1-yl)-N-({4-[(1-isopropylpiperidin-4-yl)amino]-3-nitrophenyl}sulfonyl)-2-(1H-pyrrolo[2,3-b]pyridin-5-yloxy)benzamide] | 0.139 |
| CC1(C)CCC(CN2CCN(c3ccc(C(=O)NS(=O)(=O)c4ccc(NC5CCN(C(C)(C)C)CC5)c([N+](=O)[O-])c4)c(Oc4cnc5[nH]ccc5c4)c3)CC2)=C(c2ccc(Cl)cc2)C1 [Example 227, N-({4-[(1-tert-butylpiperidin-4-yl)amino]-3-nitrophenyl}sulfonyl)-4-(4-{[2-(4-chlorophenyl)-4,4-dimethylcyclohex-1-en-1-yl]methyl}piperazin-1-yl)-2-(1H-pyrrolo[2,3-b]pyridin-5-yloxy)benzamide] | < 0.01 |
